Measurements taken from patent publication US11414385B2, “Compounds and methods for treating, detecting, and identifying compounds to treat apicomplexan parasitic diseases” (The University of Chicago, priority 2015, dated 2022).
pEC50: −log10 of the molar value. In brackets after ≈: the same amount, converted by molar mass. Entries after “also recorded” stand apart in the source; their conditions may differ.

Experiments:
[1] = tested on: Toxoplasma gondii (Pru strain expressing luciferase) tachyzoites; assay: Toxoplasma in vivo, IVIS luminescence in mice; settings: 5 mg/kg/day IP
Experimental: IVIS. Mice were infected intraperitoneally with 20×10^3 Toxoplasma gondii (Pru strain expressing luciferase) tachyzoites. Treatment commenced 2 hours later with JAG21 (5 mg/kg) which was dissolved in DMSO and administered intraperitoneally in a total volume of 0.05 ml. Mice were imaged every second day starting on day 4 post infection using a IVIS Spectrum (Caliper Life Sciences) for a 1 minute exposures, with medium binning, 20 minutes post injection with 150 mg/kg of D-luciferin potassium salt solution.

[2] = tested on: P. berghei sporozoites, blood and liver stages; assay: P. berghei sporozoite causal prophylaxis model in mice; format: in vivo, Plasmodium berghei
Experimental: P. berghei sporozoites. The methods that follow are taken directly from^24,25: From laboratory-reared female Anopheles stephensi, isolation, inoculation and viability check Plasmodium berghei sporozoites (luciferase expressing) were obtained and maintained at 18° C. for 17 to 22 days after feeding on malaria-infected Swiss CD-1/ICR mice. From malaria-infected mosquitoes, salivary glands were extracted and sporozoites obtained. Briefly, mosquitoes were separated into head/thorax and abdomen. Thoraxes and heads were triturated with a mortar and pestle and suspended in medium RPMI 1640 containing 1% C57BL/6 mouse serum (Rockland Co, Gilbertsville, Pa., USA). 50-80 heads with glands total were placed into a 0.5 ml Osaki tube on top of glass wool with enough dissection media to cover the heads. Until all mosquitoes had been dissected, the Osaki tube was kept on ice. Sporozoites that were isolated from the same batch of mosquitoes were inoculated into C57BL/6, 2D knock-out and 2D knock-out/2D6 knock-in C57BL/6 mice on the same day to control for biological variability in sporozoite preparations. On day 0, each mouse was inoculated intravenously in the tail vein with approximately 10,000 sporozoites suspended in 0.1 ml volume. They were stained with a vital dye containing fluorescein diacetate (50 mg/ml in acetone) and ethidium bromide (20 μg/ml in phosphate buffered saline; Sigma Chemical Co, St. Louis, Mo., USA) and counted in a haemocytometer to ensure that inoculated sporozoites were viable following the isolation procedure. Viability of the sporozoites ranged from 90 to 100%.
At the time of preparation of the suspension solution, compounds tested in these experiments were dosed based on the body weight. The suspension solution of oral agents, using homogenizer (PRO Scientific Inc, Monroe, Conn., USA) with 10 mm open-slotted generator to homogenize drug powder mixture at 20,000-22,000 rpm for 5 min in ice bath, were prepared in 0.5% (w/v) hydroxyethyl cellulose and 0.2% (0.5% HECT, v/v) Tween-80 in distilled water. […]
All of the in vivo imaging system (IVIS) methods utilized have been described previously. […] Additionally, using a flow cytometry system (FC500 MPL, Beckman Coulter, Miami, Fla., USA), blood-stage infections were measured. […] D-Luciferin potassium salt, (Xenogen, California and Goldbio, St Louis, Mo., USA), the luciferase substrate, was inoculated intraperitoneally into mice at a concentration of 200 mg/kg 15 min before luminescence analysis. […] Using Living Image® 3.0 software, photons emitted from specific regions were quantified.
Parasitemia was measured after days of IVIS imaging. During a total of 30 days, mice were observed and parasitemia level determined using FACs analysis. […]

[3] = target: hERG (Homo sapiens, UniProt Q12809); assay: hERG profile
hERG, sequence (Q12809 whole entry): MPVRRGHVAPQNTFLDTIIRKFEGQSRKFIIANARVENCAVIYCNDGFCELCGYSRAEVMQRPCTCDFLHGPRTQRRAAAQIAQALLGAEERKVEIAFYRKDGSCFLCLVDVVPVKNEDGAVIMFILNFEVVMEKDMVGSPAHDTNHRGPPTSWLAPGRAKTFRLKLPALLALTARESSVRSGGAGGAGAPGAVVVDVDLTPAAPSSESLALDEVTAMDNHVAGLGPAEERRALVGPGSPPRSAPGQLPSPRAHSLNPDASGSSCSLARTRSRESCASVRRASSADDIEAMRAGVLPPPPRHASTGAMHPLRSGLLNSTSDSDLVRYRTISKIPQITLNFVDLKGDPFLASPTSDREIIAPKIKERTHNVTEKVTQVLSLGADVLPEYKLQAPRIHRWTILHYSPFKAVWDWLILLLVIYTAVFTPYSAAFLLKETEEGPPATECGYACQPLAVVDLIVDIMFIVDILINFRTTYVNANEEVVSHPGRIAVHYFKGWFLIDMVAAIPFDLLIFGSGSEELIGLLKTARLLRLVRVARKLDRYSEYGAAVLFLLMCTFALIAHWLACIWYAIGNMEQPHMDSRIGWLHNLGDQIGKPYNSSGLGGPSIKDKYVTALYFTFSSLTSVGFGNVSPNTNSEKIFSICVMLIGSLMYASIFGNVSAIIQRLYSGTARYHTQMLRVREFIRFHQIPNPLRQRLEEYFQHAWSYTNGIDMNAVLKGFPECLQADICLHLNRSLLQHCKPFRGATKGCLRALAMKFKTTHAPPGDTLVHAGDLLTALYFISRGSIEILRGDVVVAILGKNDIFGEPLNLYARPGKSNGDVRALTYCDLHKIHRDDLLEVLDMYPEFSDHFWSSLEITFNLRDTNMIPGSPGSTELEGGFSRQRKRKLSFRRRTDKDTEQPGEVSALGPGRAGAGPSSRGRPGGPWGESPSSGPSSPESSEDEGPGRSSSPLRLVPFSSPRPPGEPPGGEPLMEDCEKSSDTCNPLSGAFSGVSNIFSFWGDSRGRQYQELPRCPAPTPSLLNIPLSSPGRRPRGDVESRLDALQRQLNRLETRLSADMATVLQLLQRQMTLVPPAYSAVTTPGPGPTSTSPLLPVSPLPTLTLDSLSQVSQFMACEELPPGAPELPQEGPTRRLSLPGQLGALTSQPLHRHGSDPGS

[4] = tested on: T. gondii Me49 strain cysts; assay: Established brain cysts in mice (chronic infection); format: in vivo, Toxoplasma gondii; settings: cysts established >2 months earlier, 12.5-25 mg/kg for 17 days
Experimental: The ability of compounds to reduce cyst burden and prevent encephalitis induced by the Type II strain of T. gondii were tested. Encephalitis was assessed by histological analyses and parasite burdens evaluated by quantitation of cysts.
The oocyst challenge model is ideal for this study because oocysts can be diluted at one time and stored at 4° C. for 12 months without loss of infectivity titer. For treatment of chronic infection there were 5 to 10 mice per group treated 2 months after infection was established by compound in DMSO for parenteral administration administered once per day. Treatment was for 17 days.

[5] = tested on: MDCK-MDR1 cells; assay: in vitro; format: in vitro ADME; settings: dog, MDCK-MDR1
[6] = FaSSIF solubility pH 6.5; format: physicochemical
[7] = tested on: P. falciparum Dd2; assay: SYBR Green drug sensitivity of Dd2 and cytochrome b / scDHODH lines; format: cell-based, Plasmodium falciparum
Experimental: We used the following parasite line from the MR4 repository of the American Type Culture Collection (ATCC): Dd2 (MRA-156). Mutant Dd2 parasites harboring a G33A or G33V substitution in cytochrome b were as reported. Dd2 parasites with a G131 S mutation in cytochrome b and transgenic lines expressing a chromosomally integrated copy of the S. cerevisiae DHODH were utilized as previously described. Parasites were cultured by standard methods in RPMI media supplemented with 5% human O^+ serum and 0.25% AlbuMAX® II (Life Technologies 11021-045).
Drug susceptibility was measured using the SYBR Green method. Twelve point curves based on 2-fold dilutions of the test compound were carried out in triplicate each day and replicated on at least three different days. EC50 values were calculated using a nonlinear regression curve fit in Prism 6.0 for Mac (GraphPad Software, Inc.).

[8] = P. berghei, 0.625 mg/kg x3 or 2.5 mg/kg single oral dose

Compound | effect on T. gondii tachyzoites in mice [1] | P. berghei cure, 3 oral doses ([2]; 3 oral doses (days -1, 0, +1), 0.625 mg/kg) | parasitemia [2, 8] | survival at 30 days [2, 8] [%] | P. berghei cure, single oral dose ([2]; single dose 2.5 mg/kg, oral, 2.5 mg/kg) | hERG profile [3] | effect on numbers of Me49 strain cysts in mice [4] | effect on numbers of Me49 strain cysts in mice ([4]; listed as MJM 170) | MDCK-MDR1 Efflux Ratio [5] | solubility ([6]; FaSSIF, pH 6.5, fassif) [µM] | improved FaSSIF/FeSSIF (pH 6.5) solubility ([6]; relative to ELQ 271) [fold] | cross-resistance in cytochrome b drug-resistant mutant lines ([7]; Dd2 G33A and Dd2 G33V) | pEC50 ([7]; Plasmodium falciparum, DD2) | inhibition of parasite supplemented with yeast cytosolic DHODH ([7]; scDHODH line)
Cc1[nH]c2c(c(=O)c1-c1ccc(Oc3ccc(OC(F)(F)F)cc3)cc1)CCCC2 [JAG21, 2-methyl-3-(4-(4-(trifluoromethoxy)phenoxy)phenyl)-5,6,7,8-tetrahydroquinolin-4(1H)-one] | protects against Toxoplasma gondii tachyzoites; also recorded: cleared; also recorded: eliminates T. gondii tachyzoites | protect and cure | no parasitemia | 100 | cures and cure | clean | – | – | – | – | – | – | – | –
Cc1[nH]c2c(c(=O)c1-c1ccc(Oc3ccccc3)cc1)CCCC2 [MJM170] | – | – | – | – | – | – | modestly reduced numbers | reduces cysts | 1.23 | 9.8 (≈ 3.25 µg/mL) | 3 | without cross-resistance | 7.53 | cannot inhibit
